This test concerns a variety of test species. Briefly: Post-emergence herbicidal activity (glasshouse, sprayed 8 days after sowing, evaluated after 13 days). The test is classed as in vivo. The note with it: scale 0-5. As to the method: Seeds of a variety of test species were sown in standard soil in pots. After 8 days cultivation (post-emergence) under controlled conditions in a glasshouse (at 24/16° C., day/night; 14 hours light; 65% humidity), the plants were sprayed with an aqueous spray solution derived from the formulation of the technical active ingredient in acetone/water (50:50) solution containing 0.5% Tween 20 (polyoxyethelyene sorbitan monolaurate, CAS RN 9005-64-5). The test plants were then grown in a glasshouse under controlled conditions (at 24/16° C., day/night; 14 hours light; 65% humidity) and watered twice daily. After 13 days, the test was evaluated (5=total damage to plant; 0=no damage to plant).

Consider `CCC(C)(OC)c1cc(N2C(=O)C(C)=C(Cl)C2O)nn1C` (mixture of isomers) [Compound B13], for which, under “1000 g/ha”, the “Post-emergence herbicidal damage score, ABUTH (Abutilon theophrasti)” value was determined as 5; the “Post-emergence herbicidal damage score, ALOMY (Alopecurus myosuroides)” value was 3; the “Post-emergence herbicidal damage score, AMARE (Amaranthus retroflexus)” value is 3; the “Post-emergence herbicidal damage score, ECHCG (Echinochloa crus-galli)” value is recorded as 2. Moreover, under “1000 g/ha”, the “Post-emergence herbicidal damage score, SETFA (Setaria faberi)” value was 4 and the “Post-emergence herbicidal damage score, ZEAMX (Zea mays)” value stood at 0.

`CCOC(C)(CC)c1cc(N2C(=O)C(C)=C(Cl)C2O)nn1C` (mixture of isomers) [Compound B14]: for the setting “1000 g/ha”, the “Post-emergence herbicidal damage score, ABUTH (Abutilon theophrasti)” value is 5; the “Post-emergence herbicidal damage score, ALOMY (Alopecurus myosuroides)” value amounted to 3; the “Post-emergence herbicidal damage score, AMARE (Amaranthus retroflexus)” value worked out at 4; the “Post-emergence herbicidal damage score, ECHCG (Echinochloa crus-galli)” value is reported as 4. In addition, where the note is “1000 g/ha”, the “Post-emergence herbicidal damage score, SETFA (Setaria faberi)” value is recorded as 4 and the “Post-emergence herbicidal damage score, ZEAMX (Zea mays)” value turned out to be 1.

As to `CCC(C)c1cc(N2C(=O)C(C)=C(Cl)C2O)nn1C` (mixture of isomers) [Compound B15], where the note is “1000 g/ha”, the “Post-emergence herbicidal damage score, ABUTH (Abutilon theophrasti)” value is 5; the “Post-emergence herbicidal damage score, ALOMY (Alopecurus myosuroides)” value worked out at 4; the “Post-emergence herbicidal damage score, AMARE (Amaranthus retroflexus)” value came to 5; the “Post-emergence herbicidal damage score, ECHCG (Echinochloa crus-galli)” value stood at 5. Further, for the setting “1000 g/ha”, the “Post-emergence herbicidal damage score, SETFA (Setaria faberi)” value is recorded as 5 and the “Post-emergence herbicidal damage score, ZEAMX (Zea mays)” value came out at 2.

For `CCOC(c1cc(N2C(=O)C(C)=C(Cl)C2O)nn1C)C(C)(C)C` (mixture of isomers) [Compound B16], where the note is “1000 g/ha”, the “Post-emergence herbicidal damage score, ABUTH (Abutilon theophrasti)” value came to 0; the “Post-emergence herbicidal damage score, ALOMY (Alopecurus myosuroides)” value worked out at 0; the “Post-emergence herbicidal damage score, AMARE (Amaranthus retroflexus)” value amounted to 0; the “Post-emergence herbicidal damage score, ECHCG (Echinochloa crus-galli)” value worked out at 0. For the setting “1000 g/ha”, the “Post-emergence herbicidal damage score, SETFA (Setaria faberi)” value is recorded as 0 and the “Post-emergence herbicidal damage score, ZEAMX (Zea mays)” value came to 0.

Take `CC1=C(Cl)C(O)N(c2cc(C(F)C(C)(C)C)n(C)n2)C1=O` (mixture of isomers) [Compound B19]: under “1000 g/ha”, the “Post-emergence herbicidal damage score, ABUTH (Abutilon theophrasti)” value came to 4; the “Post-emergence herbicidal damage score, ALOMY (Alopecurus myosuroides)” value came out at 2; the “Post-emergence herbicidal damage score, AMARE (Amaranthus retroflexus)” value was 4; the “Post-emergence herbicidal damage score, ECHCG (Echinochloa crus-galli)” value amounted to 3. In addition, where the note is “1000 g/ha”, the “Post-emergence herbicidal damage score, SETFA (Setaria faberi)” value was found to be 4 and the “Post-emergence herbicidal damage score, ZEAMX (Zea mays)” value is 0.

As for `CC1=C(Cl)C(O)N(c2cc(C(C)C(F)(F)F)n(C)n2)C1=O` (mixture of isomers) [Compound B21], where the note is “1000 g/ha”, the “Post-emergence herbicidal damage score, ABUTH (Abutilon theophrasti)” value was determined as 4; the “Post-emergence herbicidal damage score, ALOMY (Alopecurus myosuroides)” value is 5; the “Post-emergence herbicidal damage score, AMARE (Amaranthus retroflexus)” value is 5; the “Post-emergence herbicidal damage score, ECHCG (Echinochloa crus-galli)” value was determined as 5. Moreover, for the setting “1000 g/ha”, the “Post-emergence herbicidal damage score, SETFA (Setaria faberi)” value was 5 and the “Post-emergence herbicidal damage score, ZEAMX (Zea mays)” value is on record as 1.

Turning to `CC1=C(Cl)C(O)N(c2cc(C(C)(F)C(C)(C)C)n(C)n2)C1=O` (mixture of isomers) [Compound B22], under “1000 g/ha”, the “Post-emergence herbicidal damage score, ABUTH (Abutilon theophrasti)” value was 1; the “Post-emergence herbicidal damage score, ALOMY (Alopecurus myosuroides)” value turned out to be 1; the “Post-emergence herbicidal damage score, AMARE (Amaranthus retroflexus)” value is reported as 0; the “Post-emergence herbicidal damage score, ECHCG (Echinochloa crus-galli)” value was 2. Moreover, where the note is “1000 g/ha”, the “Post-emergence herbicidal damage score, SETFA (Setaria faberi)” value turned out to be 3 and the “Post-emergence herbicidal damage score, ZEAMX (Zea mays)” value amounted to 1.

For `CC1=C(Cl)C(O)N(c2cc3n(n2)CCC3C)C1=O` (mixture of isomers) [Compound G1], for the setting “1000 g/ha”, the “Post-emergence herbicidal damage score, ABUTH (Abutilon theophrasti)” value was determined as 5; the “Post-emergence herbicidal damage score, ALOMY (Alopecurus myosuroides)” value is on record as 4; the “Post-emergence herbicidal damage score, AMARE (Amaranthus retroflexus)” value came out at 5; the “Post-emergence herbicidal damage score, ECHCG (Echinochloa crus-galli)” value was 5. Moreover, under “1000 g/ha”, the “Post-emergence herbicidal damage score, SETFA (Setaria faberi)” value came out at 4 and the “Post-emergence herbicidal damage score, ZEAMX (Zea mays)” value came to 2.

On to `CCC1CCn2nc(N3C(=O)C(C)=C(Cl)C3O)cc21` (mixture of isomers) [Compound G3], for which, where the note is “1000 g/ha”, the “Post-emergence herbicidal damage score, ABUTH (Abutilon theophrasti)” value is 5; the “Post-emergence herbicidal damage score, ALOMY (Alopecurus myosuroides)” value stood at 4; the “Post-emergence herbicidal damage score, AMARE (Amaranthus retroflexus)” value is 5; the “Post-emergence herbicidal damage score, ECHCG (Echinochloa crus-galli)” value is 4. Besides, where the note is “1000 g/ha”, the “Post-emergence herbicidal damage score, SETFA (Setaria faberi)” value stood at 5 and the “Post-emergence herbicidal damage score, ZEAMX (Zea mays)” value worked out at 2.

Take `CCC1CCCn2nc(N3C(=O)C(C)=C(Cl)C3O)cc21` (mixture of isomers) [Compound G5]: for the setting “1000 g/ha”, the “Post-emergence herbicidal damage score, ABUTH (Abutilon theophrasti)” value was 5; the “Post-emergence herbicidal damage score, ALOMY (Alopecurus myosuroides)” value stood at 4; the “Post-emergence herbicidal damage score, AMARE (Amaranthus retroflexus)” value is recorded as 5; the “Post-emergence herbicidal damage score, ECHCG (Echinochloa crus-galli)” value was determined as 4. For the same molecule, where the note is “1000 g/ha”, the “Post-emergence herbicidal damage score, SETFA (Setaria faberi)” value is listed as 4 and the “Post-emergence herbicidal damage score, ZEAMX (Zea mays)” value came to 0.

For `CC1=C(Cl)C(O)N(c2cc(C(C)(C)C)[nH]n2)C1=O` (stereo not drawn) [Compound A1], for the setting “250 g/ha”, the “Post-emergence herbicidal damage score, ABUTH (Abutilon theophrasti)” value is reported as 5; the “Post-emergence herbicidal damage score, ALOMY (Alopecurus myosuroides)” value came to 4; the “Post-emergence herbicidal damage score, AMARE (Amaranthus retroflexus)” value came to 2; the “Post-emergence herbicidal damage score, ECHCG (Echinochloa crus-galli)” value amounted to 5. In addition, for the setting “250 g/ha”, the “Post-emergence herbicidal damage score, SETFA (Setaria faberi)” value amounted to 4 and the “Post-emergence herbicidal damage score, ZEAMX (Zea mays)” value is recorded as 0.

For the molecule `CC1=C(Cl)C(O)N(c2cc(C(F)(F)F)[nH]n2)C1=O` (stereo not drawn) [Compound A2], where the note is “1000 g/ha”, the “Post-emergence herbicidal damage score, ABUTH (Abutilon theophrasti)” value worked out at 4; the “Post-emergence herbicidal damage score, ALOMY (Alopecurus myosuroides)” value was found to be 1; the “Post-emergence herbicidal damage score, AMARE (Amaranthus retroflexus)” value came to 1; the “Post-emergence herbicidal damage score, ECHCG (Echinochloa crus-galli)” value is recorded as 2. Besides, under “1000 g/ha”, the “Post-emergence herbicidal damage score, SETFA (Setaria faberi)” value came out at 2 and the “Post-emergence herbicidal damage score, ZEAMX (Zea mays)” value stood at 0.

As for `CC1=C(Cl)C(O)N(c2cc(C(C)C)[nH]n2)C1=O` (stereo not drawn) [Compound A3], where the note is “250 g/ha”, the “Post-emergence herbicidal damage score, ABUTH (Abutilon theophrasti)” value stood at 5; the “Post-emergence herbicidal damage score, ALOMY (Alopecurus myosuroides)” value is reported as 5; the “Post-emergence herbicidal damage score, AMARE (Amaranthus retroflexus)” value is 5; the “Post-emergence herbicidal damage score, ECHCG (Echinochloa crus-galli)” value is given as 5. Further, for the setting “250 g/ha”, the “Post-emergence herbicidal damage score, SETFA (Setaria faberi)” value is listed as 4 and the “Post-emergence herbicidal damage score, ZEAMX (Zea mays)” value came to 1.

On to `CC1=C(Cl)C(O)N(c2cc(C3CC3)[nH]n2)C1=O` (stereo not drawn) [Compound A4], for which, where the note is “1000 g/ha”, the “Post-emergence herbicidal damage score, ABUTH (Abutilon theophrasti)” value was found to be 5; the “Post-emergence herbicidal damage score, ALOMY (Alopecurus myosuroides)” value was 4; the “Post-emergence herbicidal damage score, AMARE (Amaranthus retroflexus)” value turned out to be 4; the “Post-emergence herbicidal damage score, ECHCG (Echinochloa crus-galli)” value was 5. Besides, for the setting “1000 g/ha”, the “Post-emergence herbicidal damage score, SETFA (Setaria faberi)” value is reported as 4 and the “Post-emergence herbicidal damage score, ZEAMX (Zea mays)” value came out at 1.

Take `CC1=C(Cl)C(O)N(c2cc(C)[nH]n2)C1=O` (stereo not drawn) [Compound A5]: under “1000 g/ha”, the “Post-emergence herbicidal damage score, ABUTH (Abutilon theophrasti)” value is reported as 5; the “Post-emergence herbicidal damage score, ALOMY (Alopecurus myosuroides)” value was found to be 4; the “Post-emergence herbicidal damage score, AMARE (Amaranthus retroflexus)” value turned out to be 3; the “Post-emergence herbicidal damage score, ECHCG (Echinochloa crus-galli)” value is reported as 2. For the setting “1000 g/ha”, the “Post-emergence herbicidal damage score, SETFA (Setaria faberi)” value is 4 and the “Post-emergence herbicidal damage score, ZEAMX (Zea mays)” value was 2.

For the molecule `CC1=C(Cl)C(O)N(c2cc(C(F)(F)C(F)(F)F)[nH]n2)C1=O` (stereo not drawn) [Compound A6], under “1000 g/ha”, the “Post-emergence herbicidal damage score, ABUTH (Abutilon theophrasti)” value was determined as 2; the “Post-emergence herbicidal damage score, ALOMY (Alopecurus myosuroides)” value was determined as 1; the “Post-emergence herbicidal damage score, AMARE (Amaranthus retroflexus)” value was 3; the “Post-emergence herbicidal damage score, ECHCG (Echinochloa crus-galli)” value amounted to 2. For the same molecule, under “1000 g/ha”, the “Post-emergence herbicidal damage score, SETFA (Setaria faberi)” value came to 2 and the “Post-emergence herbicidal damage score, ZEAMX (Zea mays)” value was 1.

As to `CCC(C)(CC)c1cc(N2C(=O)C(C)=C(Cl)C2O)n[nH]1` (stereo not drawn) [Compound A7], for the setting “1000 g/ha”, the “Post-emergence herbicidal damage score, ABUTH (Abutilon theophrasti)” value turned out to be 5; the “Post-emergence herbicidal damage score, ALOMY (Alopecurus myosuroides)” value was 3; the “Post-emergence herbicidal damage score, AMARE (Amaranthus retroflexus)” value was found to be 5; the “Post-emergence herbicidal damage score, ECHCG (Echinochloa crus-galli)” value is on record as 5. Besides, where the note is “1000 g/ha”, the “Post-emergence herbicidal damage score, SETFA (Setaria faberi)” value amounted to 5 and the “Post-emergence herbicidal damage score, ZEAMX (Zea mays)” value was 1.

Turning to `CC1=C(Cl)C(O)N(c2cc(C)n(C)n2)C1=O` (stereo not drawn) [Compound B1], under “1000 g/ha”, the “Post-emergence herbicidal damage score, ABUTH (Abutilon theophrasti)” value was found to be 5; the “Post-emergence herbicidal damage score, ALOMY (Alopecurus myosuroides)” value is on record as 2; the “Post-emergence herbicidal damage score, AMARE (Amaranthus retroflexus)” value is on record as 5; the “Post-emergence herbicidal damage score, ECHCG (Echinochloa crus-galli)” value stood at 2. Where the note is “1000 g/ha”, the “Post-emergence herbicidal damage score, SETFA (Setaria faberi)” value is 1 and the “Post-emergence herbicidal damage score, ZEAMX (Zea mays)” value worked out at 1.

Turning to `CC1=C(Cl)C(O)N(c2cc(C(C)(C)C)n(C)n2)C1=O` (stereo not drawn) [Compound B2, 1-(5-tert-butyl-1-methyl-1H-pyrazol-3-yl)-4-chloro-5-hydroxy-3-methyl-1,5-dihydro-pyrrol-2-one], under “1000 g/ha”, the “Post-emergence herbicidal damage score, ABUTH (Abutilon theophrasti)” value was 5; the “Post-emergence herbicidal damage score, ALOMY (Alopecurus myosuroides)” value is 5; the “Post-emergence herbicidal damage score, AMARE (Amaranthus retroflexus)” value turned out to be 5; the “Post-emergence herbicidal damage score, ECHCG (Echinochloa crus-galli)” value is on record as 5. In addition, under “1000 g/ha”, the “Post-emergence herbicidal damage score, SETFA (Setaria faberi)” value was found to be 5 and the “Post-emergence herbicidal damage score, ZEAMX (Zea mays)” value worked out at 2.

These data come from patent US20160168126A1, “CHEMICAL COMPOUNDS” (SYNGENTA LIMITED, priority 2013, published 2016).
